Results on seven compounds are retold here after ChEMBL document CHEMBL1201862, “PubChem BioAssay data set” (2004).

Some test systems named below: ACHN; CCRF-CEM; EKVX; HCC 2998; HCT-15; HOP-92; HT-29; IGROV-1; KM12; MOLT-4; Malme-3M; NCI-H460; OVCAR-4; OVCAR-8; RPMI-8226; SF-295; SK-MEL-5; SN12C; SNB-19; U-251.
Common to all, as to experiment: growth of human tumour cells (NCI), 48 h

Molecules are shown by their SMILES.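 Step 1: Grow cells in 96-well plates. Step 2: Expose to compound for 48 hours at 5 concentrations. Step 3: Interpolate endpoints linearly; if unreached, use highest concentration. The concentration for 50% growth inhibition is given as GI50.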 Activity calls are given as the source filed them. Cut-off read from the data, not from the text of the source: active = GI50 up to about 1.1 µM and inactive = higher.

With `O=CN1CCC23CC(O)CCC2C1Cc1cc(Oc2nnnn2-c2ccccc2)cc(O)c13` (centres undefined), the GI50 in the assay on ACHN was > 100 µM (inactive); in the assay with CCRF-CEM, 65.5 µM (inactive); in the assay with EKVX, > 100 µM (inactive); in the assay on HCC 2998 it was > 100 µM (inactive); in the assay with HCT-15, 80 µM; in the assay on HOP-92 it was 44.7 µM (inactive). The GI50 was 59.4 µM (inactive) in the assay with HT-29; 37.8 µM (inactive) in the assay with IGROV-1; 57.9 µM (inactive) in the assay with KM12; 48.9 µM (inactive) in the assay with MOLT-4; > 100 µM (inactive) in the assay on Malme-3M; 85.9 µM (inactive) in the assay on NCI-H460. Besides, the GI50 is 86.1 µM (inactive) with OVCAR-4; > 100 µM (inactive) in the assay with OVCAR-8; 93.3 µM (inactive) in the assay with RPMI-8226; > 100 µM (inactive) in the assay on SF-295; 47.2 µM (inactive) with SK-MEL-5; > 100 µM (inactive) in the assay on SN12C. The GI50 in the assay with SNB-19 and in the assay with U-251 was > 100 µM (inactive) each time.

For `CN(O)C(=O)CCCC(=O)NCC(C)(C)CNC(=O)CCCC(=O)N(C)O`, the GI50 with ACHN is > 100 µM (inactive); in the assay with CCRF-CEM, > 100 µM (inactive); in the assay with EKVX, > 100 µM (inactive); in the assay with HCC 2998, > 100 µM (inactive); in the assay on HCT-15, above 100 µM; in the assay with HOP-92, > 100 µM (inactive). Further, the GI50 in the assay with HT-29, in the assay on IGROV-1, in the assay on KM12, with MOLT-4, in the assay on Malme-3M and with NCI-H460 was > 100 µM (inactive) in each case. In addition, the GI50 in the assay on OVCAR-4, in the assay with OVCAR-8, in the assay on RPMI-8226, in the assay on SF-295, with SK-MEL-5 and in the assay on SNB-19 was > 100 µM (inactive) throughout. For the same compound, in the assay with U-251, the GI50 is > 100 µM (inactive).

Consider `CN(C)CCNC(=O)c1ccc(NCCCN(C)CCCNc2ccc(C(=O)NCCN(C)C)c3nc4ccccc4c(O)c23)c2c(O)c3ccccc3nc12`, for which the GI50 in the assay with ACHN is 0.0466 µM (active); with CCRF-CEM, < 0.012 µM (active); in the assay on EKVX, 0.115 µM (active); with HCC 2998, < 0.01 µM (active); with HCT-15, 0.486 µM; in the assay on HOP-92 it was 0.234 µM (active). Further, the GI50 is < 0.01 µM (active) in the assay on HT-29; < 0.01 µM (active) with IGROV-1; < 0.0116 µM (active) in the assay with KM12; < 0.01 µM (active) with MOLT-4; < 0.0153 µM (active) in the assay with Malme-3M; < 0.01 µM (active) in the assay with NCI-H460. For the same compound, the GI50 in the assay on OVCAR-4 was < 0.0164 µM (active); with OVCAR-8 it was < 0.01 µM (active); in the assay with RPMI-8226 it was < 0.01 µM (active); in the assay on SF-295, 0.0442 µM (active); with SK-MEL-5 it was 0.158 µM (active); in the assay on SN12C, < 0.01 µM (active). For the same compound, the GI50 with SNB-19 and in the assay with U-251 was < 0.01 µM (active) throughout.

On to `CCOC(=O)c1cc2c([N+](=O)[O-])c(NC(C)=O)ccc2s1`, for which the GI50 in the assay with ACHN is 41.7 µM (inactive); in the assay with CCRF-CEM, 53 µM (inactive); with EKVX, 12.6 µM (inactive); in the assay on HCC 2998 it was > 100 µM (inactive); in the assay on HCT-15, 86.9 µM; with HOP-92 it was 44.8 µM (inactive). The GI50 was 89.7 µM (inactive) in the assay on HT-29; 72.9 µM (inactive) in the assay on IGROV-1; 74.8 µM (inactive) in the assay on KM12; 31.4 µM (inactive) with MOLT-4; 28.2 µM (inactive) with Malme-3M; > 100 µM (inactive) with NCI-H460. In addition, the GI50 in the assay on OVCAR-4 is 68.4 µM (inactive); in the assay with OVCAR-8, > 100 µM (inactive); in the assay with RPMI-8226, 24.4 µM (inactive); with SF-295, 69.3 µM (inactive); with SK-MEL-5, 39.4 µM (inactive); in the assay with SN12C it was 92 µM (inactive). Besides, the figures for the GI50 in the assay with SNB-19 and in the assay with U-251 were > 100 µM (inactive) and 44.6 µM (inactive), respectively.

Regarding `COc1cccc(CC(C)N)c1` (centres undefined), the GI50 with ACHN is > 100 µM (inactive); in the assay on CCRF-CEM it was > 100 µM (inactive); in the assay on EKVX, > 100 µM (inactive); with HCC 2998 it was > 100 µM (inactive); in the assay on HCT-15 it was above 100 µM; in the assay with HOP-92 it was > 100 µM (inactive). Besides, the GI50 in the assay on HT-29, in the assay on IGROV-1, in the assay with KM12, in the assay on MOLT-4, in the assay on Malme-3M and in the assay with NCI-H460 was > 100 µM (inactive) each time. The GI50 in the assay with OVCAR-4, with OVCAR-8, with RPMI-8226, in the assay on SF-295, with SK-MEL-5 and in the assay on SN12C was > 100 µM (inactive) throughout. Also, the GI50 in the assay with SNB-19 and in the assay with U-251 was > 100 µM (inactive) each time.

With `O=[N+]([O-])C(/C=C(\Cl)[N+](=O)[O-])=C1Nc2ccccc2N1`, the GI50 with ACHN was 44.4 µM (inactive); with CCRF-CEM, 34.8 µM (inactive); in the assay with EKVX, 48.5 µM (inactive); in the assay with HCC 2998 it was > 100 µM (inactive); in the assay on HCT-15 it was 59.4 µM; in the assay with HOP-92 it was 18.3 µM (inactive). Moreover, the GI50 in the assay with HT-29 is 39.6 µM (inactive); with IGROV-1, 64.7 µM (inactive); with KM12 it was > 100 µM (inactive); in the assay with MOLT-4, 37.1 µM (inactive); in the assay with Malme-3M, 42.2 µM (inactive); in the assay with NCI-H460, > 100 µM (inactive). Moreover, the GI50 was > 100 µM (inactive) in the assay with OVCAR-4; 56.6 µM (inactive) with OVCAR-8; 44.3 µM (inactive) in the assay on RPMI-8226; 35.4 µM (inactive) in the assay on SF-295; 70.8 µM (inactive) with SK-MEL-5; 39.7 µM (inactive) with SN12C. The GI50 in the assay with SNB-19 is 75.5 µM (inactive); with U-251, 43.3 µM (inactive).

For the compound `CON(C)C(=O)C(Cc1ccccc1)NC(=O)OCc1ccccc1` (centres undefined), the GI50 with ACHN is > 100 µM (inactive); with CCRF-CEM, > 100 µM (inactive); in the assay with EKVX, > 100 µM (inactive); in the assay with HCC 2998, > 100 µM (inactive); with HCT-15, above 100 µM; in the assay with HOP-92 it was > 100 µM (inactive). The GI50 in the assay on HT-29 was > 100 µM (inactive); with IGROV-1 it was > 100 µM (inactive); in the assay on KM12, > 100 µM (inactive); in the assay on MOLT-4 it was > 100 µM (inactive); in the assay on Malme-3M, 75.5 µM (inactive); in the assay on NCI-H460, > 100 µM (inactive). Further, the GI50 was > 100 µM (inactive) with OVCAR-4; > 100 µM (inactive) in the assay on OVCAR-8; > 100 µM (inactive) in the assay with RPMI-8226; > 100 µM (inactive) in the assay with SF-295; 97.7 µM (inactive) in the assay on SK-MEL-5; > 100 µM (inactive) with SN12C. Also, the GI50 in the assay on SNB-19 and in the assay on U-251 was > 100 µM (inactive) each time.
